The results in this text go back to publication PMC12455397 (Angewandte Chemie (International Ed. in English), 2025).

Each structure is given as a SMILES string.

Test [1] deals with Nrf2 KO THP1 cells differentiated into macrophages. In words: RNA sequencing transcriptome analysis, Nrf2 KO THP-1 macrophages. Type of test: cell-based. Conditions: 12 h, CDDO-Me 0.1 µM, DMF, 24, 28 10 µM, KI-696 1 µM.
In test [2] the test system is differentiated THP1 macrophages (WT).
The target in test [3] is human Keap1 Kelch (Homo sapiens, UniProt Q14145). As to the kind of experiment: Fluorescence polarization (FP) competition assay with Cy5-Nrf2 peptide probe. As to conditions: ≥3 individual measurements. On the technique in general: Fluorescence polarisation rises when a labelled molecule tumbles more slowly, as on binding a larger partner.
The test system of test [4] is Nrf2-regulated genes (AKR1B10, NQO1, TRXR1, HO-1) in HaCaT human keratinocytes. As to the kind of experiment: HaCaT cell assay, Western Blotting of Nrf2-regulated proteins. As to conditions: HaCaT, 10 µM, 24 h. Type of test: cell-based.
The mark [5] stands for this setting: WT, 12 h, CDDO-Me 0.1 µM, SFN, DMF, 24, 28 10 µM, KI-696 1 µM.
[6] abbreviates: FP (Ki/nM), Table S2, mean ± SEM, NA: not active (measured up to 4 mM).
[7] abbreviates: Ki (FP), mean, text and figures.

human Keap1 Kelch, sequence (Q14145 321-609): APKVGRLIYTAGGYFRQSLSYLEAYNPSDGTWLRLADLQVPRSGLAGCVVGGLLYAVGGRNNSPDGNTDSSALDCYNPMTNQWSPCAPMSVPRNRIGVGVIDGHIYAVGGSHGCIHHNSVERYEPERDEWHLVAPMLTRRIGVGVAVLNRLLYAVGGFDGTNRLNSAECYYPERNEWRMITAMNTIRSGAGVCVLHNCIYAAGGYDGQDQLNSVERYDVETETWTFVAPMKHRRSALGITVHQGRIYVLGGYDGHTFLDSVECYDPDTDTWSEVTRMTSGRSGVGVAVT

Turning to `COC(=O)[C@]12CCC(C)(C)C[C@H]1[C@H]1C(=O)C=C3[C@@]4(C)C=C(C#N)C(=O)C(C)(C)[C@@H]4CC[C@@]3(C)[C@]1(C)CC2` [CDDO-Me, bardoxolone methyl], the “number of up- or downregulated genes in Nrf2 KO cells” value in test [1] was 2149 genes. Also, in test [2] (Table S3, THP-1, 12 h), the “AKR1B10 FC” value is given as 61,69 fold, the “CASP1 FC” value is 1,31 fold, the “COL1A1 FC” value is given as 3,46 fold and the “COL4A1 FC” value is on record as 0,30 fold. In addition, in test [2] (Table S3, THP-1, 12 h), the “COL4A2 FC” value is listed as 0,49 fold, the “GPX1 FC” value is 0,44 fold, the “GPX4 FC” value was 0,91 fold and the “IFNAR1 FC” value is reported as 0,82 fold. In test [2] (Table S3, THP-1, 12 h), the “IFNAR2 FC” value is 0,52 fold, the “IFNGR1 FC” value is on record as 0,81 fold, the “IFNGR2 FC” value is 0,41 fold and the “IL1B FC” value was 0,13 fold. Moreover, in test [2] (Table S3, THP-1, 12 h), the “IRF3 FC” value is given as 0,95 fold, the “LAMB1 FC” value was 3,83 fold, the “LAMB4 FC” value was 5,61 fold and the “MMP8 FC” value is reported as 0,21 fold. In test [2] (Table S3, THP-1, 12 h), the “MMP9 FC” value was 0,51 fold, the “MMP12 FC” value is given as 0,25 fold, the “NLRP3 FC” value was 0,43 fold and the “NOD2 FC” value is recorded as 0,78 fold. In test [2] (Table S3, THP-1, 12 h), the “NOXA1 FC” value is 0,67 fold, the “SOCS1 FC” value is 0,37 fold, the “SOCS3 FC” value is 1,14 fold and the “SOD1 FC” value is 2,71 fold. Also, in test [2] (Table S3, THP-1, 12 h), the “SOD2 FC” value is given as 0,36 fold, the “STAT1 FC” value is 1,02 fold, the “TBK1 FC” value is 1,06 fold and the “TLR4 FC” value is given as 0,26 fold. In test [2] (Table S3, THP-1, 12 h), the “TNFRSF1B FC” value is recorded as 0,27 fold, the “TRAP1 FC” value is given as 0,64 fold and the “cGAS FC” value is 1,19 fold. Besides, the “number of upregulated genes not shared by the other groups” value in test [2] (WT, 12 h, CDDO-Me 0.1 µM, DMF 10 µM) is recorded as more than 500 genes. In addition, in test [2] (setting [5]), the “Average FC of upregulated Nrf2-dependent genes” value is 5.0 fold and the “number of upregulated genes (FC >2.0, p-adj <0.05)” value amounted to 1091 genes.

As usually defined, the Ki is a measure of affinity in units of concentration, obtained from inhibition or displacement. In the case of `Cc1cc2c(cc1C(CC(=O)O)c1ccc3ccc(OCC(=O)NC4CCCCCC4)cc3c1)CCO2` (centres unmarked) [Compound 25], the Ki in test [3] (setting [6]) came out at 18.8 ± 1.7 nM; in test [3] (setting [7]), 19 nM. Also, the “protein levels of Nrf2-regulated genes by WB” value (shortened to “protein levels”) in test [4] was “strong bands in WB for all tested proteins”.

As to `O=C(O)CC(c1ccc2c(c1)CCO2)c1ccc2ccc(OCC(=O)NC3C=CCCC3)cc2c1` (centres unmarked) [Compound 40], the results for the Ki in test [3] (setting [6]) and in test [3] (setting [7]) were 26.7 ± 4.2 nM and 27 nM, respectively. The “protein levels” value in test [4] is reported as “strong bands in WB for all tested proteins”.

In test [3] (setting [7]), `Cc1cc2c(cc1C(CC(=O)O)c1ccc3ccc(OCC(=O)NC4C=CCCC4)cc3c1)OCO2` (centres unmarked) [Compound 44] displayed a Ki of 3.9 nM. Moreover, the “protein levels” value in test [4] is listed as “strong bands in WB for all tested proteins”.

Take `Cc1cc2occc2cc1C(CC(=O)O)c1ccc2ccc(OCC(=O)NC3C=CCCC3)cc2c1` (centres unmarked) [Compound 46]: the Ki in test [3] (setting [6]) turned out to be 17.8 ± 3.4 nM; in test [3] (setting [7]) it was 18 nM.

In the case of `Cc1cc2c(cc1C(CC(=O)O)c1ccc3ccc(OCC(=O)NC4C=CCCC4)cc3c1)OC(F)(F)O2` (centres unmarked) [Compound 47], the Ki in test [3] (setting [6]) was found to be 16.1 ± 3.8 nM; in test [3] (setting [7]), 16 nM.

`Cc1cc2c(cc1C(CC(=O)O)c1ccc3ccc(OCC(=O)NC4C=CCCC4)cc3c1)OCCO2` (centres unmarked) [Compound 48]: the Ki was determined as 19.2 ± 2.4 nM in test [3] (setting [6]) and 19 nM in test [3] (setting [7]). For the same compound, the “protein levels” value in test [4] was “strong bands in WB for all tested proteins”.
